Data reported in patent US10485235B2, “Aryloxypyrimidinyl ethers as herbicides” (FMC Corporation, priority 2015, dated 2019).

How the values were obtained:
Assay type in all cases: in vivo
[1] = tested on: foxtail, giant (giant foxtail, Setaria faberii); assay: Test A postemergence, giant foxtail
Procedure, shortened: (§1)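 Scores (0 no effect to 100 complete control) come from visual comparison of treated and untreated plants kept about 10 days in a greenhouse. Growth medium was a loam/sand blend; preemergence treatment was a directed soil spray, postemergence treatment went onto plants at the 1–2 leaf stage.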

[2] = tested on: wheat (Triticum aestivum); assay: Test A postemergence, wheat
Procedure, shortened: as §1

rice (Oryza sativa) = assay: Test B flooded paddy test, rice; details: 250 g ai/ha, Flood; visual rating after 13 to 15 days; scale 0 to 100, 0 is no effect, 100 is complete control
Procedure, shortened: (§2)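 Plants grown to 2-leaf stage, pots flooded to 3 cm above soil and compound applied directly to paddy water, depth maintained throughout. After 13-15 days in greenhouse, visual rating against untreated controls on 0-100 scale (0 no effect, 100 complete control).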

[3] = tested on: blackgrass (Alopecurus myosuroides); assay: Test A postemergence, blackgrass
Procedure, shortened: as §1

[4] = tested on: ducksalad (Heteranthera limosa); assay: Test B flooded paddy test, ducksalad; details: 250 g ai/ha, Flood; visual rating after 13 to 15 days; scale 0 to 100, 0 is no effect, 100 is complete control
Procedure, shortened: as §2

[5] = tested on: foxtail, giant (giant foxtail, Setaria faberii); assay: Test A preemergence, giant foxtail; details: Preemergence, 0 to 100 scale (0 no effect, 100 complete control)
Procedure, shortened: as §1

[6] = tested on: ryegrass, Italian (Italian ryegrass, Lolium multiflorum); assay: Test A postemergence, Italian ryegrass
Procedure, shortened: as §1

[7] = tested on: ragweed (common ragweed, Ambrosia elatior); assay: Test A preemergence, ragweed; details: Preemergence, 0 to 100 scale (0 no effect, 100 complete control)
Procedure, shortened: as §1

corn (Zea mays) = assay: Test A postemergence, corn
Procedure, shortened: as §1

[8] = tested on: ragweed (common ragweed, Ambrosia elatior); assay: Test A postemergence, ragweed
Procedure, shortened: as §1

[9] = tested on: galium (catchweed bedstraw, Galium aparine); assay: Test A postemergence, galium
Procedure, shortened: as §1

[10] = tested on: pigweed (Amaranthus retroflexus); assay: Test A preemergence, pigweed; details: Preemergence, 0 to 100 scale (0 no effect, 100 complete control)
Procedure, shortened: as §1

[11] = tested on: sedge, umbrella (small-flower umbrella sedge, Cyperus difformis); assay: Test B flooded paddy test, umbrella sedge; details: 250 g ai/ha, Flood; visual rating after 13 to 15 days; scale 0 to 100, 0 is no effect, 100 is complete control
Procedure, shortened: as §2

kochia (Kochia scoparia) [12] = assay: Test A postemergence, kochia
Procedure, shortened: as §1

[13] = tested on: barnyardgrass (Echinochloa crus-galli); assay: Test A preemergence, barnyardgrass; details: Preemergence, 0 to 100 scale (0 no effect, 100 complete control)
Procedure, shortened: as §1

kochia (Kochia scoparia) [14] = assay: Test A preemergence, kochia; details: Preemergence, 0 to 100 scale (0 no effect, 100 complete control)
Procedure, shortened: as §1

[15] = tested on: ryegrass, Italian (Italian ryegrass, Lolium multiflorum); assay: Test A preemergence, Italian ryegrass; details: Preemergence, 0 to 100 scale (0 no effect, 100 complete control)
Procedure, shortened: as §1

[16] = tested on: pigweed (Amaranthus retroflexus); assay: Test A postemergence, pigweed
Procedure, shortened: as §1

[17] = tested on: barnyardgrass (Echinochloa crus-galli); assay: Test B flooded paddy test, barnyardgrass; details: 250 g ai/ha, Flood; visual rating after 13 to 15 days; scale 0 to 100, 0 is no effect, 100 is complete control
Procedure, shortened: as §2

[18] = tested on: barnyardgrass (Echinochloa crus-galli); assay: Test A postemergence, barnyardgrass
Procedure, shortened: as §1

[19] = 125 g ai/ha, postemergence, 0 to 100 scale, 0 is no effect, 100 is complete control, approximately 10 days
[20] = Postemergence, 31 g ai/ha, 0 to 100 scale (0 no effect, 100 complete control)
[21] = 31 g ai/ha, postemergence, 0 to 100 scale, 0 is no effect, 100 is complete control, approximately 10 days
[22] = 500 g ai/ha, postemergence, 0 to 100 scale, 0 is no effect, 100 is complete control, approximately 10 days

CCC(=O)COc1c(C#N)cccc1Oc1ncc(Cl)cn1 [Compound 75]
Plant response rating, Foxtail, Giant [1, 19]: 0
Plant response rating, Foxtail, Giant [1, 20]: 0
Plant response rating, Wheat [2, 19]: 0
Plant response rating, Wheat [2, 20]: 0
Plant response rating, Rice (rice (Oryza sativa)): 0
Plant response rating, Blackgrass [3, 19]: 0
Plant response rating, Blackgrass [3, 20]: 0
Plant response rating, Ducksalad [4]: 30
Plant response rating, Foxtail, Giant ([5]; 31 g ai/ha): 0
Plant response rating, Foxtail, Giant ([5]; 125 g ai/ha): 40
Plant response rating, Ryegrass, Italian [6, 19]: 0
Plant response rating, Ryegrass, Italian [6, 20]: 0
Plant response rating, Ragweed ([7]; 31 g ai/ha): 0
Plant response rating, Ragweed ([7]; 125 g ai/ha): 0
Plant response rating, Corn (corn (Zea mays); [19]): 10
Plant response rating, Corn (corn (Zea mays); [20]): 0
Plant response rating, Ragweed [8, 19]: 0
Plant response rating, Ragweed [8, 20]: 0
Plant response rating, Galium [9, 19]: 20
Plant response rating, Galium [9, 20]: 10
Plant response rating, Pigweed ([10]; 31 g ai/ha): 50
Plant response rating, Pigweed ([10]; 125 g ai/ha): 100
Plant response rating, Sedge, Umbrella [11]: 0
Plant response rating, Kochia (kochia (Kochia scoparia) [12]; [19]): 20
Plant response rating, Kochia (kochia (Kochia scoparia) [12]; [20]): 10
Plant response rating, Barnyardgrass ([13]; 31 g ai/ha): 0
Plant response rating, Barnyardgrass ([13]; 125 g ai/ha): 50
Plant response rating, Kochia (kochia (Kochia scoparia) [14]; 31 g ai/ha): 0
Plant response rating, Kochia (kochia (Kochia scoparia) [14]; 125 g ai/ha): 60
Plant response rating, Ryegrass, Italian ([15]; 31 g ai/ha): 0
Plant response rating, Ryegrass, Italian ([15]; 125 g ai/ha): 0
Plant response rating, Pigweed [16, 19]: 20
Plant response rating, Pigweed [16, 20]: 10
Plant response rating, Barnyardgrass [17]: 0
Plant response rating, Barnyardgrass [18, 19]: 0
Plant response rating, Barnyardgrass [18, 20]: 0

Cc1cccc(Oc2ncc(Cl)cn2)c1OCCCC(F)(F)F [Compound 55]
Plant response rating, Foxtail, Giant [1, 21]: 20
Plant response rating, Foxtail, Giant [1, 19]: 60
Plant response rating, Wheat [2, 21]: 0
Plant response rating, Wheat [2, 19]: 0
Plant response rating, Rice (rice (Oryza sativa)): 45
Plant response rating, Blackgrass [3, 21]: 0
Plant response rating, Blackgrass [3, 19]: 20
Plant response rating, Ducksalad [4]: 100
Plant response rating, Foxtail, Giant ([5]; 31 g ai/ha): 10
Plant response rating, Foxtail, Giant ([5]; 125 g ai/ha): 80
Plant response rating, Ryegrass, Italian [6, 21]: 0
Plant response rating, Ryegrass, Italian [6, 19]: 20
Plant response rating, Ragweed ([7]; 31 g ai/ha): 0
Plant response rating, Ragweed ([7]; 125 g ai/ha): 0
Plant response rating, Corn (corn (Zea mays); [21]): 0
Plant response rating, Corn (corn (Zea mays); [19]): 20
Plant response rating, Ragweed [8, 21]: 0
Plant response rating, Ragweed [8, 19]: 0
Plant response rating, Galium [9, 21]: 0
Plant response rating, Galium [9, 19]: 20
Plant response rating, Pigweed ([10]; 31 g ai/ha): 0
Plant response rating, Pigweed ([10]; 125 g ai/ha): 50
Plant response rating, Sedge, Umbrella [11]: 95
Plant response rating, Kochia (kochia (Kochia scoparia) [12]; [21]): 10
Plant response rating, Kochia (kochia (Kochia scoparia) [12]; [19]): 20
Plant response rating, Barnyardgrass ([13]; 31 g ai/ha): 10
Plant response rating, Barnyardgrass ([13]; 125 g ai/ha): 70
Plant response rating, Kochia (kochia (Kochia scoparia) [14]; 31 g ai/ha): 0
Plant response rating, Kochia (kochia (Kochia scoparia) [14]; 125 g ai/ha): 60
Plant response rating, Ryegrass, Italian ([15]; 31 g ai/ha): 0
Plant response rating, Ryegrass, Italian ([15]; 125 g ai/ha): 10
Plant response rating, Pigweed [16, 21]: 10
Plant response rating, Pigweed [16, 19]: 30
Plant response rating, Barnyardgrass [17]: 40
Plant response rating, Barnyardgrass [18, 21]: 10
Plant response rating, Barnyardgrass [18, 19]: 20

N#Cc1cccc(Oc2ncc(Cl)cn2)c1OCC(F)F [Compound 16]
Plant response rating, Foxtail, Giant [1, 19]: 30
Plant response rating, Foxtail, Giant [1, 22]: 100
Plant response rating, Wheat [2, 19]: 0
Plant response rating, Wheat [2, 22]: 20
Plant response rating, Rice (rice (Oryza sativa)): 0
Plant response rating, Blackgrass [3, 19]: 10
Plant response rating, Blackgrass [3, 22]: 90
Plant response rating, Ducksalad [4]: 30
Plant response rating, Foxtail, Giant ([5]; 125 g ai/ha): 100
Plant response rating, Foxtail, Giant ([5]; 500 g ai/ha): 100
Plant response rating, Ryegrass, Italian [6, 19]: 0
Plant response rating, Ryegrass, Italian [6, 22]: 80
Plant response rating, Ragweed ([7]; 125 g ai/ha): 60
Plant response rating, Ragweed ([7]; 500 g ai/ha): 90
Plant response rating, Corn (corn (Zea mays); [19]): 20
Plant response rating, Corn (corn (Zea mays); [22]): 70
Plant response rating, Ragweed [8, 19]: 10
Plant response rating, Ragweed [8, 22]: 60
Plant response rating, Galium [9, 19]: 30
Plant response rating, Galium [9, 22]: 90
Plant response rating, Pigweed ([10]; 125 g ai/ha): 100
Plant response rating, Pigweed ([10]; 500 g ai/ha): 100
Plant response rating, Sedge, Umbrella [11]: 0
Plant response rating, Kochia (kochia (Kochia scoparia) [12]; [19]): 100
Plant response rating, Kochia (kochia (Kochia scoparia) [12]; [22]): 100
Plant response rating, Barnyardgrass ([13]; 125 g ai/ha): 80
Plant response rating, Barnyardgrass ([13]; 500 g ai/ha): 100
Plant response rating, Kochia (kochia (Kochia scoparia) [14]; 125 g ai/ha): 100
Plant response rating, Kochia (kochia (Kochia scoparia) [14]; 500 g ai/ha): 100
Plant response rating, Ryegrass, Italian ([15]; 125 g ai/ha): 10
Plant response rating, Ryegrass, Italian ([15]; 500 g ai/ha): 40
Plant response rating, Pigweed [16, 19]: 90
Plant response rating, Pigweed [16, 22]: 100
Plant response rating, Barnyardgrass [17]: 0
Plant response rating, Barnyardgrass [18, 19]: 20
Plant response rating, Barnyardgrass [18, 22]: 90
